Reference: patent US8309540
Like-named read-outs stand apart in the source and are kept apart here.

`COC(=O)[C@@H]1C[C@@H]2CN1C(=O)[C@H](C1CCCCC1)NC(=O)OCC(C)(C)C/C=C/c1cc3c(cc(=O)[nH]c3cc1OC)O2` showed a ring closure, yield of all isomers (from C=CCC(C)(C)COC(=O)N[C@H](C(=O)N1C[C@H](Oc2cc(=O)[nH]c3cc(OC)c(C=C)cc23)C[C@H]1C(=O)OC)C1CCCCC1, rcm bond, Zhan 1B, DCM, 4.96 mM, 40.0 °C, 32.0 h) of 99.5%.

Work on `CCOc1cc2c3cc(c(OC)cc3n1)[C@H]1C[C@@H]1CC(C)(C)COC(=O)N[C@@H](C1CCCC1)C(=O)N1C[C@@H](C[C@H]1C(=O)OC)O2` yielded a ring closure, yield of all isomers (from CCOc1cc(O[C@H]2CN[C@H](C(=O)OC)C2)c2cc(C3CC3CC(C)(C)COC(=O)N[C@H](C(=O)O)C3CCCC3)c(OC)cc2n1, amide bond, HATU/DIEA, DCM, 7.1 mM, 18.0 h) of 65.5%.

`CCOc1cc2c3cc(c(OC)cc3n1)/C=C/C[C@@H]1CCC[C@H]1OC(=O)N[C@@H](C1CCCC1)C(=O)N1C[C@@H](C[C@H]1C(=O)OC)O2` showed a ring closure, yield of all isomers (from C=CC[C@@H]1CCC[C@H]1OC(=O)N[C@H](C(=O)N1C[C@H](Oc2cc(OCC)nc3cc(OC)c(C=C)cc23)C[C@H]1C(=O)OC)C1CCCC1, rcm bond, Zhan 1b, DCE, 8.78 mM, 70.0 °C, 21.0 h) of 90.9%.
